Measurements from US20250073348A1, “CAMPTOTHECIN CONJUGATES” (priority 2018, published 2025).

Key:
[1] = test system: DEL; assay: In vitro cytotoxicity, CellTiter-Glo, 96 h; assay type: cell-based; conditions: Table 6
Experimental: (§1) In vitro potency was assessed on multiple cancer cell lines. All cell lines were authenticated by STR profiling at IDEXX Bioresearch and cultured for no more than 2 months after resuscitation. Cells cultured in log-phase growth were seeded for 24 hours in 96-well plates containing 150 μl RPMI 1640 supplemented with 20% FBS. Serial dilutions of antibody-drug conjugates in cell culture media were prepared at 4× working concentrations, and 50 μl of each dilution was added to the 96-well plates. Following addition of test articles, cells were incubated with test articles for 4 days at 37° C. After 96 hours, growth inhibition was assessed by CellTiter-Glo® (Promega, Madison, WI) and luminescence was measured on a plate reader. The EC50 value, determined in triplicate, is defined here as the concentration that results in 50% reduction in cell growth relative to untreated controls.
(§2) In the following Tables IC50 values for ADCs and CPT free drugs are given in ng/mL and […] concentrations, respectively, with parenthetic values representing percent cells remaining at the highest concentration tested (1000 ng/mL for ADCs and 1 μM for CPT free compound, unless otherwise indicated) relative to untreated cells. Cell viability was determined by CellTiter-Glo staining after 96 h exposure to ADC. ND=Not Determined. […]

[2] = test system: DEL-BVR (DEL brentuximab vedotin resistant line); assay: In vitro cytotoxicity on MDR+ line, CellTiter-Glo, 96 h; assay type: cell-based; conditions: Table 6
Experimental: as §1, §2

[3] = 1000 ng/mL, relative to untreated cells

## Ag2-vcMMAE (8): vcMMAE conjugate on Ag2; "Ag2 refers to cAC10, which targets the CD30 antigen"
[1]; [3]
  percent cells remaining at the highest dose tested, DEL: 1%
[1]; Ag2(+) parental DEL, 96 h
  IC50 DEL: 0.0005 µg/mL
[2]; [3]
  percent cells remaining at the highest dose tested, DEL/BVR: 93%
[2]; Ag2(+), MDR(+) DEL-BVR, 96 h
  IC50 DEL/BVR: >1 µg/mL
